Test results as given in patent US9464326B2, “Total and phosphorylated IL-1 receptor-associated kinase-1 and IL-1 receptor-associated kinase-4 as a biomarker for cancer progression and chemotherapy resistance” (University of Maryland, Baltimore, priority 2012, dated 2016).

Key:
[1] = molecular target: IRAK-4 (Homo sapiens, UniProt Q9NWZ3); conditions: supplier (EMD Millipore) description; cited from earlier work
[2] = tested on: A375 cells; assay: Western blot of IRAK phosphorylation in A375; format: cell-based, human; conditions: Pam3CysK4 2.5 μg/ml or flagellin 100 ng/ml, 48 hours, FIG. 22B
Experimental: FIG. 22. Effects of TLR stimulation and cytokines on IRAK phosphorylation in melanoma cells. (A) A375 cells were cultured in the presence of anti-IL-18, anti-CXCL-1, (R&D Systems), anti-IL-1 (BioLegend), or mouse IgG (Sigma-Aldrich) all at 10 μg/ml. Forty-eight hours later the levels of the indicated proteins were determined by western blot. (B) A375 cells, which express p-IRAK-1 and p-IRAK-4, and G361 melanoma cells, which express very low levels of p-IRAK-1 (and express TLR5) were cultured in the presence of TLR1-TLR2 agonist (Pam3CysK4; 2.5 μg/ml) or TLR5 (flagellin; 100 ng/ml; InVivogen). Forty-eight hours later total protein was collected and the levels of the indicated proteins were examined by western blot.
Total cell extracts were prepared from melanoma cells. […] Melanoma tissue arrays were purchased from US Biomax, Inc (Rockville, Md.). For immunohistochemical staining samples were stained with mouse monoclonal anti-human phosphor-IRAK.-4 antibody (Abnova; dilution, 3.5 μg/ml) or normal mouse serum. Tissue histology sections (5-μm-thick) were deparaffinized, hydrated, heated in boiling 10 mmol/L sodium citrate (pH 6.0), for antigen retrieval, for 30 min and washed in Tris buffer. Peroxide blocking was done with 3% […] in methanol at room temperature for 15 min, followed by 10% fetal bovine serum in TBS-t for 30 min at room temperature. Primary antibody incubation was done overnight at 4° C. Secondary antibody incubation with horse anti-mouse (1:200; Vector Laboratories, Burlingame, Calif.) was done for 1 hr, followed by application of diaminobenzidine chromogen for 5 min. The slides were then counterstained with hematoxylin and topped with a coverslip. IHC specimens were analyzed using “quick score” system in which the intensity of the immunohistochemical reaction was scored by multiplying the intensity 1 (weak), 2 (moderate), and 3 (strong) and the proportion of cells staining positively 0 (<10%), 1 (10-25%), 2 (26-50%), 3 (51-75%) or 4 (>75%).

[3] = tested on: C32 melanoma cells; assay: Vinblastine-induced apoptosis in C32 (flow cytometry); format: cell-based, human; conditions: vinblastine 100 nM with TLR1-TLR2 ligand 2.5 μg/ml, 48 hours, FIG. 20B
Experimental: FIG. 20. Role of TLR-induced cytokines and NF-kB on cell survival. (A) A375 melanoma cells were cultured in a 48-well plates in the presence or absence of NF-kB inhibitor NF-kB inhibitor SN50 (100 nM; Anaspec) with or without vinblastine (100 nM) or Doxorubicin (0.25 μg/ml). The percentage of apoptotic cells was measured by staining cells with Annexin and PI 48 hours later and analyzed by flow cytometry. (B) C32 melanoma cells were cultured in the presence of vinblastine (100 nM) and in the […] of TLR1-TLR2 ligand (2.5 μg/ml) or the presence of supernatant from TLR1-TLR2-stimulated A375 cells. After 48 hours, apoptosis was measured by flow cytometry. (C) A375 melanoma cells were cultured in the presence or absence of vinblastine (100 nM) and IL-1 (50 ng/ml; BioLegend), IL-18 (100 ng/ml; Medical and Biological Lab) or CXCL1 (50 ng/ml; R&D Systems). Apoptosis was measured 48 hours later by flow cytometry.
Alternatively, cytokines/chemokines produced in response to TLR-IRAK signaling might also contribute to the chemoprotective effects. Supernatant from TLR-1-TLR-2 stimulated or unstimulated A375 melanoma cells was added to the C32 melanoma cells in the presence or absence of vinblastine. Another group of cells were treated with TLR1-TLR2 ligand and apoptosis was examined by flow cytometry. […]

[4] = tested on: HSB-2; assay: Proliferation (3H-thymidine) of HSB-2; format: cell-based, human
Excerpt: CCRF-CEM, CEM/C1, CEM/C2, CEM-C7, Jurkat, Loucy, Molt-4, HSB-2, SUP-T1, Hut 78, HH, Hut 102, MO, and H9 T-leukemia and T-lymphoma cell lines were purchased from the American Type Culture Collection (Manassas, Va., USA). All of the cell lines were initially expanded and cryopreserved within one month of receipt. Cells were typically used for 6 months at which time a fresh vial of cryopreserved cells was used. Total T cells from healthy donors were isolated via negative selection followed by positive selection using a CD3+ selection kit (Invitrogen, Carlsbad, Calif.). T cells were isolated from patients with T-ALL bone marrow or peripheral blood samples containing more than 70% leukemia cells using a CD2+ isolation kit (STEMCELL Technologies, Vancouver, Canada). All tissues were collected under institutional IRB-approved protocols and all participants gave written informed assent/consent. For in vitro experiments, T-ALL cells were cultured in AIM-V medium supplemented with 20% human AB serum in the presence of recombinant human stem cell factor (50 ng/mL; Amgen, Thousand Oaks, Calif.), insulin (20 nM; Sigma-Aldrich, St Louis, Mo., USA) and IL-7 (50 ng/mL; R&D Systems, Minneapolis, Minn., USA). In other experiments, protein lysate was collected using the Full Moon Biosystems (Sunnyvale, Calif., USA) buffer prior to protein examination by western blot or protein array.
Cells were cultured in a 96-well plate (Corning Costar, Corning, N.Y., USA) with various concentrations of TLR ligands 1-9, starting at 10 μg/ml, in a final volume of 200 ul. TLR ligands were diluted 2-fold. Cell lines (25-40×10^3/well) were cultured for 54 hours, whereas fresh patient-derived T-ALL cells (200×10^3/well) were cultured for 30 hours prior to adding [^3H]-thymidine for 18 hours. After this time point, cells were harvested with a Packard Filter-Mate-96 cell harvester (Perkin Elmer, Waltham, Mass., USA) and counted on Packard Top Count-NXT (Perkin Elmer, Waltham, Mass., USA). Results were expressed as average counts per minute (cpm). In some experiments CCRF-CEM cells were pre-treated with TLR1-TLR2 ligand (Pam3CysK4; 2.5 ug/ml) for 48 hrs, washed, and then cultured in the presence of varying concentrations of FBS. Forty-eight hours later, proliferation (±SD) was determined by ^3H-thymidine incorporation. Alternatively, apoptosis was measured by flow cytometry after staining cells with Annexin-V (BD Pharmingen, San Diego, Calif., USA) and propidium iodide (Sigma). Cell number was counted under microscopy by staining cells with trypan blue.
The following TLR ligands were purchased from Invivogen (San Diego, Calif., USA): tripalmitoyl-S-(bis(palmitoyloxy)propyl)-Cys-Ser-(Lys)3-Lys (TLR1-2); Poly I:C (TLR3); ultrapure S. Minnesota Lipopolysaccharide (TLR4); S. typhimurium flagellin (TLR5); FSL-1 (TLR2/6); Imiquimod (TLR7); ssRNA40/Lyovec (TLR8); CpG-ODN 2006 (TLR9).

Chain of IRAK-4 (Q9NWZ3 whole entry): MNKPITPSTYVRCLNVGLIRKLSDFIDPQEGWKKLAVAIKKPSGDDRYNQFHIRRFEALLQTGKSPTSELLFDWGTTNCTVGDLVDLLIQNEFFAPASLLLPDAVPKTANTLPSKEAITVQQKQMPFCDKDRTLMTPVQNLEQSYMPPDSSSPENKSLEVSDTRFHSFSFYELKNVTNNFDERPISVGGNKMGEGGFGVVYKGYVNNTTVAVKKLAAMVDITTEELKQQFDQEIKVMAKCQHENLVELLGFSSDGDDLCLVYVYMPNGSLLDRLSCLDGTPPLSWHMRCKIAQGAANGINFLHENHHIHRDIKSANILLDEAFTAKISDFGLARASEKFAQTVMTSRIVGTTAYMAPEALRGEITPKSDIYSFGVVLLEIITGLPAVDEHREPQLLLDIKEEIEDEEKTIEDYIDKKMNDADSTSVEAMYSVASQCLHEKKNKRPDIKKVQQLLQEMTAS

Row | Compound | inhibition of IRAK-4 [1] | p-IRAK-1 or p-IRAK-4 expression levels [2] | vinblastine-induced apoptosis [3] | Proliferative effects of TLR ligands ([4]; 3H-thymidine uptake, 72 h) | TLR ligand concentration in parentheses below the symbol ([4]; no unit in table (μg/ml))
1 | O=C(Nc1nc2ccccc2n1CCN1CCOCC1)c1cccc([N+](=O)[O-])c1 [IRAK-1,-4 inhibitor] | selectively inhibits | – | – | – | –
2 | tripalmitoyl-S-(bis(palmitoyloxy)propyl)-Cys-Ser-(Lys)3-Lys [Pam3Cysk4] | – | remained unchanged | little effect | − (reduced proliferation) | (5)
